These results are taken from ChEMBL document CHEMBL1124225, “2,3-Diarylindenes and 2,3-diarylindenones: synthesis, molecular structure, photochemistry, estrogen receptor binding affinity, and comparisons with related triarylethylenes” (J Med Chem, 1988).

Molecules are shown by their SMILES.

The target in this test is Estrogen receptor (Rattus norvegicus) (UniProt P06211+Q62986). Put plainly: Binding affinity for rat uterine estrogen receptor relative to estradiol. It counts as protein assay.
For the molecule `O=C1C(c2ccc(O)cc2)=C(c2ccc(O)cc2)c2ccc(O)cc21`, the RBA came to 23%. For `Oc1ccc2c(c1)Cc1c-2c2ccccc2c2ccccc12` the value was 0.01%; for `Oc1ccc(C2=C(c3ccc(O)cc3)c3ccc(O)cc3C2)cc1`, 15%. On to `Oc1ccc2c(c1)CC(c1ccccc1)=C2c1ccccc1`, for which the RBA was 8.9%. As for `Oc1ccc(C2=C(c3ccc(O)cc3)c3ccc(O)cc3CC2)cc1`, the RBA was 140%. The molecule `O=C1C(c2ccccc2)=C(c2ccccc2)c2ccc(O)cc21` displayed an RBA of 59%.
